Measurements as given in patent US20030166648A1, “Felbamate derived compounds” (priority 2002, published 2003).
Marks after values point to notes of the source that are not given here.

Assays:
[1] = human; cited from earlier work
[2] = Minimal neurotoxicity (TOX), rotorod test, mice i.p.; format: in vivo; conditions: for TOX, number of animals exhibiting toxic effects/total number tested: mice i.p.
Excerpt: The fluoro derivatives synthesized were submitted to the National Institute of Neurological Disorders and Stroke (NINDS) for evaluation in a standard panel of assays. Two convulsant tests (MES and scMET), and a toxicity screen (rotorod in mice, positional sense and gait in rats) were employed for evaluating the compounds activity as neuroprotecting agents. These testing procedures are described in detail in Molecular and Cellular Targets for Anti-epileptic Drugs, eds. […] The felbamate derivatives were evaluated for anticonvulsant activity following intraperitoneal (i.p.) administration in mice and oral administration in rats. […]

[3] = system: pentylenetetrazol-induced clonic seizures; test: Subcutaneous Metrazol seizure test (scMET), mice i.p.; format: in vivo
Excerpt: (§1) The fluoro derivatives synthesized were submitted to the National Institute of Neurological Disorders and Stroke (NINDS) for evaluation in a standard panel of assays. Two convulsant tests (MES and scMET), and a toxicity screen (rotorod in mice, positional sense and gait in rats) were employed for evaluating the compounds activity as neuroprotecting agents. These testing procedures are described in detail in Molecular and Cellular Targets for Anti-epileptic Drugs, eds. G. Avanzini, G. Regesta, P. Tanganelli, M. Avoli, 1997, John Libbey & Company Ltd, pp 191-198. The felbamate derivatives were evaluated for anticonvulsant activity following intraperitoneal (i.p.) administration in mice and oral administration in rats.
The Subcutaneous (Metrazol) Seizure Test (scMET)
This is a model that primarily identifies compounds that raise seizure threshold. With some minor exceptions, the pharmacological profile of the scMET seizure model is consistent with the human condition. The scMET test utilizes a dose of pentylenetetrazol (85 mg/kg in Carworth Farms No. 1 mice and 70 mg/kg in Sprague-Dawley rats) that induces clonic seizures lasting for a period of at least five seconds in 97% (CD97) of animals tested. At the anticipated time of testing the convulsant is administered subcutaneously. The test compound is administered intraperitoneally in mice and orally in rats. Animals are observed over a 30 minute period. Absence of clonic spasms in the observed time period indicates a compound's ability to abolish the effect of pentylenetetrazol on seizure threshold.
(§2) For the MES and scMET tests the data is presented in the form of the number of animals protected by the administered compound/total number of animals tested. […] Qualitative data was obtained for fluoro felbamate 12 (Tables 1 and 2A), fluoro monocarbamate felbamate 13 (Tables 1 and 2B), and fluorodioxo 16 (Tables 1 and 2C) and for cyclic felbamate 21 (Tables 5 and 6B) and cyclic monocarbamate 22 (Tables 5 and 6A). More extensive quantitative data was also obtained for fluoro felbamate 12 in mice (Table 3) and rats (Table 4).

[4] = system: MES-induced seizure spread; test: Maximal electroshock seizure (MES) test, mice i.p.; format: in vivo; conditions: for MES, number of animals protected/total number tested: mice i.p.
Excerpt: as §1
(§3) The Maximal Electroshock Seizure (MES)
(§4) The MES test is a model for generalized tonic-clonic seizures and is used to identify compounds which prevent seizure spread. The behavioral and electrographic seizures generated in this model are consistent with the human disorder. In the MES test, an electrical stimulus of 0.2 s in duration (50 mA in mice and 150 mA in rat at 60 Hz) was delivered via corneal electrodes primed with an electrolyte solution containing an anesthetic agent. Mice were tested at 30 minutes and 4 hours following doses of 30, 100 and 300 mg/kg of test compound. Rats were tested at time intervals between 0.25 and 4 hours following a standard oral dose of 30 mg/kg. Abolition of the hindlimb tonic extensor component indicates the test compound's ability to inhibit MES-induced seizure spread.
as §2

[5] = system: MES-induced seizure spread; test: Maximal electroshock seizure (MES) test, rats p.o.; format: in vivo; conditions: for anti-seizure activity in rats (in words): rat models; for MES, number of animals protected/total number tested: rat p.o.
Excerpt: as §1, §3, §4, §2

[6] = Minimal neurotoxicity (TOX), positional sense and gait and stance tests, rats p.o.; format: in vivo; conditions: for TOX, number of animals exhibiting toxic effects/total number tested: rat p.o., 30 mg/kg
Excerpt: The fluoro derivatives synthesized were submitted to the National Institute of Neurological Disorders and Stroke (NINDS) for evaluation in a standard panel of assays. Two convulsant tests (MES and scMET), and a toxicity screen (rotorod in mice, positional sense and gait in rats) were employed for evaluating the compounds activity as neuroprotecting agents. These testing procedures are described in detail in Molecular and Cellular Targets for Anti-epileptic Drugs, eds. […] The felbamate derivatives were evaluated for anticonvulsant activity following intraperitoneal (i.p.) administration in mice and oral administration in rats.
Rats are examined for behavioral toxicity by the positional sense test and a gait and stance test. […] In the gait and stance test, neurotoxicity is indicated by a circular or zigzag gait, ataxia, abnormal spread of the legs, abnormal posture, tremor hyperactivity, lack of exploratory behavior, somnolence, stupor or catalepsy. […]

seizures = test: NINDS anticonvulsant panel (MES, scMET), overall statements; format: in vivo; conditions: for anti-seizure activity (in words): overall statement
Excerpt: as §1, §2

[7] = system: focal seizures of hippocampal kindled rats; test: Hippocampal kindling model (kindled rats), i.p.; format: in vivo, Sprague-Dawley rats; conditions: 100 mg/kg
Excerpt: The Hippocampal Kindling Model
The hippocampal kindling model can be used to evaluate a compound's ability to affect both the expression and acquisition of focal seizures. The hippocampal kindling paradigm as described by Lothman and Williamson (Lothman, 1994) allows the temporal effects of a drug to be evaluated in a single animal. This procedure requires the surgical placement of bipolar electrodes in the ventral hippocampus of adult male Sprague-Dawley rats. Stage five behavioral seizures are produced by using a stimulus consisting of a 50 Hz, 10 s train of 1 ms biphasic 200 uA pulses delivered every 30 min for 6 hours (12 stimuli per day) on alternating days for a total of 60 stimulations (five stimulus days). Prior to evaluating a candidate's anticonvulsant activity, a drug free control period consisting of supramaximal stimulations are recorded to verify the stability of a stage five generalized seizure.
A single dose of the candidate compound is then administered intraperitoneally (i.p.), 15 min following the last control stimulation. The anticonvulsant activity of the drug is assessed every 30 min for three to four hours starting 15 min after administering the test material. After each stimulation, individual Racine seizure scores and afterdischarge durations are recorded. Rats are used again in drug trials after four to five drug- and stimulus-free days.

[8] = Toxicity, oral administration to mice; format: in vivo; conditions: doses up to 218 mg/kg
Method: Toxicity induced by a compound is detected in mice using the standardized rotorod test described by Dunham & Miya (1957). Untreated control mice, when placed on a 6 r.p.m. rotation rod, can maintain their equilibrium for a prolonged period of time.
Toxicity across time doe not occur until dosages of 300 mg/kg. […] Quantitative results obtained for fluoro felbamate 12 in mice indicated a MES ED50 of approximately 20 mg/kg with a safety ratio of at least five (see Table 3). Results obtained for oral administration of fluoro felbamate 12 to rats indicated a MES ED50 of about 3 mg/kg with no toxicity at doses up to 500 mg/kg.

Row | Compound | TOX, number of animals exhibiting toxic effects/total number tested ([2]; 30 mg/kg, 0.5 h) | TOX, number of animals exhibiting toxic effects/total number tested ([2]; 30 mg/kg, 4.0 h) | TOX, number of animals exhibiting toxic effects/total number tested ([2]; 100 mg/kg, 0.5 h) | TOX, number of animals exhibiting toxic effects/total number tested ([2]; 100 mg/kg, 4.0 h) | TOX, number of animals exhibiting toxic effects/total number tested ([2]; 300 mg/kg, 0.5 h) | TOX, number of animals exhibiting toxic effects/total number tested ([2]; 300 mg/kg, 4.0 h) | anti-seizure activity in rats (in words) [5] | TOX, number of animals exhibiting toxic effects/total number tested ([6]; 0.25 h) | TOX, number of animals exhibiting toxic effects/total number tested ([6]; 0.5 h) | TOX, number of animals exhibiting toxic effects/total number tested ([6]; 1.0 h) | TOX, number of animals exhibiting toxic effects/total number tested ([6]; 2.0 h) | TOX, number of animals exhibiting toxic effects/total number tested ([6]; 4.0 h) | anti-seizure activity (in words) (seizures) | further results
1 | NC(=O)CC(C(=O)O)c1ccccc1 (stereo not shown) [acid carbamate 4, 3-carbamoyl-2-phenylpropionic acid] |  |  |  |  |  |  |  |  |  |  |  |  |  | fraction of a felbamate dose found as acid carbamate [1]: ~12%
2 | NC(=O)OCC1(c2ccccc2)COC(=O)N1 (stereo not shown) [cyclic felbamate] | 0/4 | 0/2 | 0/8 | 0/4 | 0/4 | 0/2 | potent activity | 0/4 | 0/4 | 0/4 | 0/4 | 0/4 |  | ScMET, number of animals protected/total number tested ([3]; 30 mg/kg, 0.5 h): 0/1; ScMET, number of animals protected/total number tested ([3]; 30 mg/kg, 4.0 h): 0/1; ScMET, number of animals protected/total number tested ([3]; 100 mg/kg, 0.5 h): 0/1; ScMET, number of animals protected/total number tested ([3]; 100 mg/kg, 4.0 h): 0/1; ScMET, number of animals protected/total number tested ([3]; 300 mg/kg, 0.5 h): 0/1; ScMET, number of animals protected/total number tested ([3]; 300 mg/kg, 4.0 h): 0/1; MES, number of animals protected/total number tested ([4]; 30 mg/kg, 0.5 h): 0/1; MES, number of animals protected/total number tested ([4]; 30 mg/kg, 4.0 h): 0/1; MES, number of animals protected/total number tested ([4]; 100 mg/kg, 0.5 h): 0/3; MES, number of animals protected/total number tested ([4]; 100 mg/kg, 4.0 h): 0/3; MES, number of animals protected/total number tested ([4]; 300 mg/kg, 0.5 h): 0/1; MES, number of animals protected/total number tested ([4]; 300 mg/kg, 4.0 h): 0/1; MES, number of animals protected/total number tested ([5]; 30 mg/kg, 0.25 h): 2/4; MES, number of animals protected/total number tested ([5]; 30 mg/kg, 0.5 h): 2/4; MES, number of animals protected/total number tested ([5]; 30 mg/kg, 1.0 h): 3/4; MES, number of animals protected/total number tested ([5]; 30 mg/kg, 2.0 h): 0/4; MES, number of animals protected/total number tested ([5]; 30 mg/kg, 4.0 h): 3/4
3 | O=C1NC(=O)C(F)(c2ccccc2)CO1 (stereo not shown) [fluoro dioxo, 5-Fluoro-5-phenyl-1,3-oxazinane2,4-dione] | 0/4 | 0/2 | 0/8 | 0/4 | 1/4 | 0/2 | strong anti-seizure activity | 0/4 | 0/4 | 0/4 | 0/4 | 0/4 |  | anti-seizure activity in mice (in words) ([4]; mice, MES and scMET (Table 1)): inactive
4 | NC(=O)OCC(F)(COC(N)=O)c1ccccc1 [fluoro felbamate, 2-Fluoro-2-phenyl-1,3-propanediol dicarbamate] | 1/4 | 0/2 | 4/8 | 0/4 | 4/4 | 2/2 |  | 0/4 | 0/4 | 0/4 | 0/4 | 1/4 | show anti-seizure activity | activity relative to felbamate (times more active) (seizures; test not specified): 5-10 times; TOX, number of animals exhibiting toxic effects/total number tested ([2]; 3 mg/kg, 0.5 h): 0/4; TOX, number of animals exhibiting toxic effects/total number tested ([2]; 3 mg/kg, 4.0 h): 0/4; TOX, number of animals exhibiting toxic effects/total number tested ([2]; 10 mg/kg, 0.5 h): 0/4; TOX, number of animals exhibiting toxic effects/total number tested ([2]; 10 mg/kg, 4.0 h): 0/4; safety ratio ([2]; mice, relative to MES ED50): at least five; MES protection (in words) ([4]; mice, 30 mg/kg, at both 30 minutes and 4 hours): MES protective effects; MES ED50 ([5]; rat, p.o.): 3.0 mg/kg; MES protection (in words) ([5]; rats p.o., 30 mg/kg, over several timepoints): full protection; effect on afterdischarge duration (in words) [7]: corresponding decrease in afterdischarge duration; effect on seizure score (in words) [7]: significant drop in seizure score; Number Protected / Number Tested ([7]; Dose Responses, i.p.): 7/8^a; toxicity ([6]; oral administration to rats, doses up to 500 mg/kg): no toxicity; toxicity [8]: no toxicity
5 | NC(=O)OCC(F)(CO)c1ccccc1 (stereo not shown) [fluoro monocarbamate felbamate, 2-Fluoro-2-phenyl-1,3-propanediol monocarbamate] | 0/4 | 0/2 | 3/8 | 0/4 | 2/4 | 0/2 |  | 0/4 | 0/4 | 0/4 | 0/4 | 0/4 | show anti-seizure activity | MES protection (in words) ([4]; mice, 100 mg/kg): moderate MES protection
